Results published in ChEMBL document CHEMBL1201862, “PubChem BioAssay data set” (2004).
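Interpolation was linear, between the two tested concentrations surrounding the appropriate level; five concentrations were tested over 48 hours in 96-well plates. GI50: concentration for 50% inhibition of growth.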 Activity calls are given as the source filed them. Cut-off read from the data, not from the text of the source: active = GI50 up to about 1.1 µM and inactive = higher.

Legend:
Experiment in all cases: NCI-60 cell line screen, 48 h
TK-10 = tested on: TK-10
IGROV-1 = tested on: IGROV-1
OVCAR-5 = tested on: OVCAR-5
U-251 = tested on: U-251
UO-31 = tested on: UO-31
HT-29 = tested on: HT-29
CCRF-CEM = tested on: CCRF-CEM
KM-20L2 = tested on: KM-20L2
NCI-H226 = tested on: NCI-H226
A498 = tested on: A498
NCI-H23 = tested on: NCI-H23
K562 = tested on: K562
SN12C = tested on: SN12C
HCT-116 = tested on: HCT-116
SR = tested on: SR
SNB-78 = tested on: SNB-78
LOX IMVI = tested on: LOX IMVI
DMS-273 = tested on: DMS-273
UACC-257 = tested on: UACC-257
HOP-18 = tested on: HOP-18
SF-539 = tested on: SF-539
NCI-H522 = tested on: NCI-H522
XF498 = tested on: XF498
SW-620 = tested on: SW-620
LXFL 529 = tested on: LXFL 529
Malme-3M = tested on: Malme-3M
M14 = tested on: M14
MOLT-4 = tested on: MOLT-4
DLD-1 = tested on: DLD-1
NCI-H460 = tested on: NCI-H460
786-0 = tested on: 786-0
SNB-19 = tested on: SNB-19
OVCAR-4 = tested on: OVCAR-4
HCC 2998 = tested on: HCC 2998
SK-MEL-28 = tested on: SK-MEL-28
HL-60 = tested on: HL-60
HOP-62 = tested on: HOP-62
SF-295 = tested on: SF-295
UACC-62 = tested on: UACC-62
SK-MEL-5 = tested on: SK-MEL-5
SF-268 = tested on: SF-268
CAKI-1 = tested on: CAKI-1
M19-MEL = tested on: M19-MEL
KM12 = tested on: KM12
RXF 631 = tested on: RXF 631
SNB-75 = tested on: SNB-75
SK-MEL-2 = tested on: SK-MEL-2
A549 = tested on: A549
COLO 205 = tested on: COLO 205
HOP-92 = tested on: HOP-92
HCT-15 = tested on: HCT-15
DMS-114 = tested on: DMS-114
OVCAR-3 = tested on: OVCAR-3
SK-OV-3 = tested on: SK-OV-3
RPMI-8226 = tested on: RPMI-8226
ACHN = tested on: ACHN
EKVX = tested on: EKVX
OVCAR-8 = tested on: OVCAR-8
RXF 393 = tested on: RXF 393

Measured: GI50

Cc1ccccc1NC(=O)/C(=N/NC(=O)CC#N)C1C(=O)N(c2ccccc2)N=C1N (configuration not stated)
inactive: TK-10 > 100 µM | IGROV-1 > 100 µM | OVCAR-5 > 100 µM | U-251 > 100 µM | UO-31 > 100 µM | HT-29 > 100 µM | CCRF-CEM 31.3 µM | KM-20L2 > 100 µM | NCI-H226 > 100 µM | A498 > 100 µM | NCI-H23 > 100 µM | K562 75.5 µM | SN12C > 100 µM | HCT-116 > 100 µM | SR 52.1 µM | SNB-78 > 100 µM | LOX IMVI > 100 µM | DMS-273 > 100 µM | UACC-257 > 100 µM | HOP-18 > 100 µM | SF-539 > 100 µM | NCI-H522 57.1 µM | XF498 > 100 µM | SW-620 > 100 µM | LXFL 529 > 100 µM | Malme-3M > 100 µM | M14 > 100 µM | MOLT-4 72.9 µM | DLD-1 79.6 µM | NCI-H460 > 100 µM | 786-0 > 100 µM | SNB-19 > 100 µM | OVCAR-4 > 100 µM | HCC 2998 > 100 µM | SK-MEL-28 > 100 µM | HL-60 37.9 µM | HOP-62 > 100 µM | SF-295 > 100 µM | UACC-62 > 100 µM | SK-MEL-5 > 100 µM | SF-268 > 100 µM | CAKI-1 > 100 µM | M19-MEL > 100 µM | KM12 > 100 µM | RXF 631 > 100 µM | SNB-75 > 100 µM | SK-MEL-2 > 100 µM | A549 > 100 µM | COLO 205 > 100 µM | HOP-92 36.5 µM | DMS-114 > 100 µM | OVCAR-3 > 100 µM | SK-OV-3 > 100 µM | RPMI-8226 96.2 µM | ACHN 60.1 µM | EKVX > 100 µM | OVCAR-8 > 100 µM | RXF 393 > 100 µM
> 100 µM: HCT-15

[O-][Cl+3]([O-])([O-])O.c1ccc(/N=c2\nc(N3CCOCC3)ss2)cc1
inactive: TK-10 46.5 µM | IGROV-1 20.1 µM | OVCAR-5 28.9 µM | U-251 15.2 µM | UO-31 28.6 µM | HT-29 20 µM | KM-20L2 16.5 µM | NCI-H226 61.1 µM | A498 27.7 µM | NCI-H23 29.5 µM | K562 16.5 µM | SN12C 15.1 µM | HCT-116 14.6 µM | SR 16.6 µM | SNB-78 22 µM | LOX IMVI 16 µM | DMS-273 17.4 µM | UACC-257 15.8 µM | HOP-18 > 100 µM | SF-539 18.3 µM | NCI-H522 12.7 µM | XF498 17.9 µM | SW-620 10.2 µM | LXFL 529 12.2 µM | Malme-3M 14.8 µM | M14 14.7 µM | MOLT-4 12.3 µM | DLD-1 14.6 µM | NCI-H460 17.6 µM | 786-0 16.4 µM | SNB-19 30.5 µM | OVCAR-4 15.7 µM | HCC 2998 21.1 µM | SK-MEL-28 17.2 µM | HL-60 14.6 µM | HOP-62 41.3 µM | SF-295 18.7 µM | UACC-62 13.8 µM | SK-MEL-5 34.2 µM | SF-268 16 µM | CAKI-1 20.2 µM | M19-MEL 18 µM | KM12 17.2 µM | RXF 631 17.4 µM | SNB-75 19.9 µM | SK-MEL-2 17.9 µM | A549 33.4 µM | HOP-92 21.9 µM | DMS-114 14.6 µM | SK-OV-3 > 100 µM | ACHN 16.5 µM | EKVX 21 µM | OVCAR-8 15 µM | RXF 393 17.3 µM
active: CCRF-CEM 0.016 µM
15.5 µM: HCT-15

CCOC(=O)C1=C(C)NC(=S)NC1c1ccccc1 (configuration not stated)
> 41.3 µM: HCT-15
inactive: TK-10 > 100 µM | IGROV-1 > 100 µM | OVCAR-5 > 100 µM | U-251 > 39.3 µM | UO-31 35.9 µM | HT-29 > 96.4 µM | CCRF-CEM > 45.1 µM | KM-20L2 > 41.4 µM | NCI-H226 > 100 µM | A498 > 100 µM | NCI-H23 > 100 µM | K562 50 µM | SN12C > 100 µM | HCT-116 > 59 µM | SR 21.8 µM | SNB-78 > 100 µM | LOX IMVI > 63.7 µM | DMS-273 > 100 µM | UACC-257 > 100 µM | HOP-18 > 35.6 µM | SF-539 > 100 µM | NCI-H522 > 63.8 µM | XF498 > 39.4 µM | LXFL 529 76.4 µM | Malme-3M > 100 µM | M14 > 100 µM | MOLT-4 59.6 µM | DLD-1 > 57.9 µM | NCI-H460 > 59.3 µM | 786-0 > 100 µM | OVCAR-4 32.3 µM | HCC 2998 > 100 µM | SK-MEL-28 > 100 µM | HL-60 71.8 µM | HOP-62 > 100 µM | SF-295 > 100 µM | UACC-62 > 71.3 µM | SK-MEL-5 > 83.9 µM | SF-268 > 100 µM | CAKI-1 > 20 µM | M19-MEL > 43.9 µM | KM12 > 100 µM | RXF 631 > 100 µM | SNB-75 > 100 µM | SK-MEL-2 > 100 µM | A549 > 100 µM | COLO 205 > 45 µM | HOP-92 > 100 µM | DMS-114 > 39.9 µM | OVCAR-3 > 100 µM | SK-OV-3 > 100 µM | RPMI-8226 33.9 µM | ACHN > 100 µM | EKVX > 100 µM | OVCAR-8 > 100 µM | RXF 393 > 66.2 µM
